Legend:
[1] = Serum parameters after acute treatment of HFD- or HCD-fed mice (NAFLD model); assay type: in vivo, C57BL/6J female mice; conditions: 25 mg/kg i.p. twice, fasted overnight, mean ± SD, n=15-17
Protocol: (§1) Animal studies were approved by Institutional Animal Care and Use Committee of McGuire Veterans Affairs Medical Center and were conducted in accordance with the Declaration of Helsinki, the Guide for the Care and Use of Laboratory Animals, and all applicable regulations. To examine the effect of 25HC3S on diet-induced lipid accumulation in sera and liver, 8-week-old female C57BL/6J mice (Charles River, Wilmington, Mass.) were randomly assigned to three groups: the first control group was fed a chow diet; the high fat diet (HFD) group was fed a HFD (Harlan Teklad, Madison, Wis.) containing 42% kcal from fat, 43% kcal from carbohydrate, 15% kcal from protein and 0.2% cholesterol; and the high cholesterol diet (HCD) group was fed a 2% cholesterol diet with 18% kcal from fat, 58% kcal from carbohydrate and 24% kcal from protein for 10 weeks, respectively. All mice were housed under identical conditions in an aseptic facility and given free access to water and food. At the end of each period, the mice were intraperitoneally injected with vehicle solution (ethanol/PBS; Vehicle), 25HC (25 mg/kg), or 25HC3S (25 mg/kg) for 2 times and fasted over night for acute treatment (n=15-17 for each group) or once every three days for 6 weeks (n=16 for each group) and fasted 5 hrs for long-term treatment; and blood samples were collected. Serum triglyceride, total cholesterol, high density lipoprotein-cholesterol, glucose, alkaline phosphatase (ALK), alanine aminotransferase (ALT), and aspartate aminotransferase (AST) were measured using standard enzymatic techniques in the clinical laboratory at McGuire Veterans Affairs Medical Center. Lipoprotein profiles in sera were analyzed by HPLC as following described.

[2] = HPLC analysis of 25HC3S and 25HC levels in liver tissues; assay type: in vivo, C57BL/6J female mice; conditions: HFD mice, acute treatment
SREBP-1c pathway = assay: Western blot of cytoplasmic and nuclear liver extracts, acute treatment; assay type: in vivo, C57BL/6J female mice; conditions: HFD mice
Protocol: Animal studies were approved by Institutional Animal Care and Use Committee of McGuire Veterans Affairs Medical Center and were conducted in accordance with the Declaration of Helsinki, the Guide for the Care and Use of Laboratory Animals, and all applicable regulations. […] All mice were housed under identical conditions in an aseptic facility and given free access to water and food. At the end of each period, the mice were intraperitoneally injected with vehicle solution (ethanol/PBS; […] Serum triglyceride, total cholesterol, high density lipoprotein-cholesterol, glucose, alkaline phosphatase (ALK), alanine aminotransferase (ALT), and aspartate aminotransferase (AST) were measured using standard enzymatic techniques in the clinical laboratory at McGuire Veterans Affairs Medical Center. Lipoprotein profiles in sera were analyzed by HPLC as following described. Liver tissues were homogenized, and cytoplasmic and nuclear fractions were extracted with NE-PER Nuclear and Cytoplasmic Extraction Kit (Fisher Scientific, Pittsburgh, Pa.). […] Each positive band was quantified by Advanced Image Data Analyzer (Aida, Straubenhardt, Germany).

[3] = tested on: lipogenic gene expression; assay: Relative hepatic mRNA expression by real-time RT-PCR, acute treatment; assay type: in vivo, C57BL/6J female mice; conditions: liver; for ABCA1 relative hepatic mRNA / ABCG1 relative hepatic mRNA / ACC1 relative hepatic mRNA / ACOX1 relative hepatic mRNA / CD36 relative hepatic mRNA / CPT1 relative hepatic mRNA / CYP7α relative hepatic mRNA / CYP27α relative hepatic mRNA / FABP1 relative hepatic mRNA / FAS relative hepatic mRNA / FATP relative hepatic mRNA / G6Pase relative hepatic mRNA / GCK relative hepatic mRNA / GPAM relative hepatic mRNA / LDLR relative hepatic mRNA / LXRα relative hepatic mRNA / MCAD relative hepatic mRNA / MTTP relative hepatic mRNA / PCK1 relative hepatic mRNA / PLTP relative hepatic mRNA / PPARα relative hepatic mRNA / Pkir relative hepatic mRNA / SCD relative hepatic mRNA / SRB1 relative hepatic mRNA / SREBP-1c relative hepatic mRNA / SULT2B1b relative hepatic mRNA: acute treatment (twice), mean ± SD, n=5-6
Protocol: as §1
Total RNA was isolated with SV Total RNA Isolation Kit (Promega, Madison, Wis.), which included DNase treatment. Total RNA, 2 μg, was used for the first-strand cDNA synthesis as recommended by the manufacturer (Invitrogen, Carlsbad, Calif.). Real-time RT-PCR was performed using SYBR Green as indicator on ABI 7500 Fast Real-Time PCR System (Applied Biosystems, Foster City, Calif.). All primer/probe sets for real-time PCR were TaqMan gene expression assays (Applied Biosystems, Foster City, Calif.). Amplifications of β-actin and GAPDH were used as internal controls. Relative messenger RNA (mRNA) expression was quantified with the comparative cycle threshold (Ct) method and was expressed as 2^−ΔΔCt. Suitable primers were utilized.

LXR signaling pathway = assay: Western blot of LXR and its target genes and PCNA in mouse liver (Example 3); assay type: in vivo, C57BL/6 mice
Protocol: Cayman Chemical, Ann Arbor, Mich.); […] […] Metabolism. (Accepted)]. […] Cell lysates were prepared from frozen mouse liver tissues. Total proteins, 100 μg, were separated by 10% SDS-PAGE, and transferred to PVDF membrane (Millipore, Eschbom, Germany). […] Louis, Mo.) was used as a loading control. The immunoreactive bands were detected by Fujifilm Medical System (Fujifilm, Stamford, Conn.) and quantified by Advanced Image Data Analyzer (Aida Inc., Straubenhardt, Germany).

[4] = HFD mice, acute treatment, compared to vehicle

C[C@H](CCCC(C)(C)O)[C@H]1CC[C@H]2[C@@H]3CC=C4C[C@@H](O)CC[C@]4(C)[C@H]3CC[C@]12C [25HC, 25-hydroxycholesterol]
ALK ([1]; HFD 10 weeks): 55 ± 12 IU/L | ALT ([1]; HFD 10 weeks): 56 ± 14 IU/L | AST ([1]; HFD 10 weeks): 294 ± 57 IU/L | Cholesterol ([1]; HFD 10 weeks): 144 ± 24 mg/dL | Glucose ([1]; HFD 10 weeks): 188 ± 26 mg/dL | HDL-C ([1]; HFD 10 weeks): 119 ± 21 mg/dL | Triglycerides ([1]; HFD 10 weeks): 49 ± 13 mg/dL | level of the administered compound in liver [2]: significantly increased | nuclear SREBP-1, cytoplasmic ACC1 and FAS protein levels (SREBP-1c pathway): increased | decrease of ACOX1 mRNA level ([3]; HFD mice, acute treatment): 55% | decrease of PPARα mRNA level ([3]; HFD mice, acute treatment): 40% | decrease of SCD mRNA level ([3]; HFD mice, acute treatment): 40% | increase of ACC1 mRNA level ([3]; HFD mice, acute treatment): 160% | increase of FAS mRNA level ([3]; HFD mice, acute treatment): 150% | increase of SREBP-1c mRNA level ([3]; HFD mice, acute treatment): 170% | increase of SULT2B1b expression ([3]; HFD mice, acute treatment): 3 fold | ABCA1 relative hepatic mRNA ([3]; HFD mice): 1.08 ± 0.24 | ABCG1 relative hepatic mRNA ([3]; HFD mice): 1.38 ± 0.78 | ACC1 relative hepatic mRNA ([3]; HFD mice): 1.58 ± 0.64 | ACOX1 relative hepatic mRNA ([3]; HFD mice): 0.45 ± 0.17 | CD36 relative hepatic mRNA ([3]; HFD mice): 0.71 ± 0.24 | CPT1 relative hepatic mRNA ([3]; HFD mice): 0.94 ± 0.16 | CYP7α relative hepatic mRNA ([3]; HFD mice): 0.19 ± 0.18 | CYP27α relative hepatic mRNA ([3]; HFD mice): 1.00 ± 0.12 | FABP1 relative hepatic mRNA ([3]; HFD mice): 0.48 ± 0.15 | FAS relative hepatic mRNA ([3]; HFD mice): 1.45 ± 0.18 | FATP relative hepatic mRNA ([3]; HFD mice): 0.67 ± 0.12 | G6Pase relative hepatic mRNA ([3]; HFD mice): 0.25 ± 0.13 | GCK relative hepatic mRNA ([3]; HFD mice): 0.57 ± 0.16 | GPAM relative hepatic mRNA ([3]; HFD mice): 1.12 ± 0.27 | LDLR relative hepatic mRNA ([3]; HFD mice): 1.38 ± 0.50 | LXRα relative hepatic mRNA ([3]; HFD mice): 0.98 ± 0.09 | MCAD relative hepatic mRNA ([3]; HFD mice): 0.75 ± 0.12 | MTTP relative hepatic mRNA ([3]; HFD mice): 1.04 ± 0.14 | PCK1 relative hepatic mRNA ([3]; HFD mice): 1.47 ± 0.37 | PLTP relative hepatic mRNA ([3]; HFD mice): 0.81 ± 0.36 | PPARα relative hepatic mRNA ([3]; HFD mice): 0.59 ± 0.09 | Pkir relative hepatic mRNA ([3]; HFD mice): 0.77 ± 0.13 | SCD relative hepatic mRNA ([3]; HFD mice): 0.59 ± 0.13 | SRB1 relative hepatic mRNA ([3]; HFD mice): 1.52 ± 0.31 | SREBP-1c relative hepatic mRNA ([3]; HFD mice): 1.69 ± 0.75 | SULT2B1b relative hepatic mRNA ([3]; HFD mice): 3.33 ± 0.89 | increase of IL1α expression ([3]; data not shown): 217% | increase of NFκB expression ([3]; data not shown): 168% | expression of ABCA1 and SREBP-1c (LXR signaling pathway; Ad-Control and 25HC co-treatment group): effectively up-regualted

CC(CCCC(C)(C)O)C1CCC2C3CC=C4CC(OS(=O)(=O)O)CCC4(C)C3CCC12C (stereo not shown) [25HC3S, 25-hydroxycholesterol-3-sulfate]
ALK ([1]; HCD 10 weeks): 89 ± 19 IU/L | ALT ([1]; HCD 10 weeks): 44 ± 5 IU/L | AST ([1]; HCD 10 weeks): 227 ± 48 IU/L | Cholesterol ([1]; HCD 10 weeks): 86 ± 7 mg/dL | Glucose ([1]; HCD 10 weeks): 249 ± 39 mg/dL | HDL-C ([1]; HCD 10 weeks): 77 ± 7 mg/dL | Triglycerides ([1]; HCD 10 weeks): 43 ± 8 mg/dL | ALK ([1]; HFD 10 weeks): 76 ± 21 IU/L | ALT ([1]; HFD 10 weeks): 47 ± 6 IU/L | AST ([1]; HFD 10 weeks): 222 ± 54 IU/L | Cholesterol ([1]; HFD 10 weeks): 87 ± 24 mg/dL | Glucose ([1]; HFD 10 weeks): 245 ± 50 mg/dL | HDL-C ([1]; HFD 10 weeks): 72 ± 26 mg/dL | Triglycerides ([1]; HFD 10 weeks): 34 ± 9 mg/dL | level of the administered compound in liver [2]: significantly increased | suppression of FAS protein level (SREBP-1c pathway): 40% | suppression of cytoplasmic ACC1 protein level (SREBP-1c pathway): 50% | suppression of nuclear SREBP-1c protein level (SREBP-1c pathway): 70% | ABCA1 relative hepatic mRNA ([3]; HFD mice): 0.71 ± 0.12 | ABCG1 relative hepatic mRNA ([3]; HFD mice): 1.14 ± 0.76 | ACC1 relative hepatic mRNA ([3]; HFD mice): 0.56 ± 0.12 | ACOX1 relative hepatic mRNA ([3]; HFD mice): 0.82 ± 0.16 | CD36 relative hepatic mRNA ([3]; HFD mice): 0.93 ± 0.36 | CPT1 relative hepatic mRNA ([3]; HFD mice): 1.05 ± 0.19 | CYP7α relative hepatic mRNA ([3]; HFD mice): 0.60 ± 0.18 | CYP27α relative hepatic mRNA ([3]; HFD mice): 1.06 ± 0.23 | FABP1 relative hepatic mRNA ([3]; HFD mice): 1.14 ± 0.45 | FAS relative hepatic mRNA ([3]; HFD mice): 0.33 ± 0.21 | FATP relative hepatic mRNA ([3]; HFD mice): 1.05 ± 0.29 | G6Pase relative hepatic mRNA ([3]; HFD mice): 1.36 ± 0.77 | GCK relative hepatic mRNA ([3]; HFD mice): 1.10 ± 0.68 | GPAM relative hepatic mRNA ([3]; HFD mice): 1.16 ± 0.08 | LDLR relative hepatic mRNA ([3]; HFD mice): 1.07 ± 0.09 | LXRα relative hepatic mRNA ([3]; HFD mice): 0.79 ± 0.10 | MCAD relative hepatic mRNA ([3]; HFD mice): 1.36 ± 0.31 | MTTP relative hepatic mRNA ([3]; HFD mice): 1.31 ± 0.20 | PCK1 relative hepatic mRNA ([3]; HFD mice): 1.02 ± 0.25 | PLTP relative hepatic mRNA ([3]; HFD mice): 0.97 ± 0.55 | PPARα relative hepatic mRNA ([3]; HFD mice): 0.93 ± 0.35 | Pkir relative hepatic mRNA ([3]; HFD mice): 0.61 ± 0.18 | SCD relative hepatic mRNA ([3]; HFD mice): 0.93 ± 0.27 | SRB1 relative hepatic mRNA ([3]; HFD mice): 1.30 ± 0.22 | SREBP-1c relative hepatic mRNA ([3]; HFD mice): 0.56 ± 0.13 | SULT2B1b relative hepatic mRNA ([3]; HFD mice): 1.29 ± 0.34 | reduction of ACCT mRNA level [3, 4]: 45% | reduction of FAS mRNA level [3, 4]: 70% | reduction of LXRα mRNA level [3, 4]: 20% | reduction of SREBP-1c mRNA level [3, 4]: 45% | decrease of ABCA1 protein level (LXR signaling pathway; 5 mg/kg, 48 h): 50% | decrease of LXRα protein level (LXR signaling pathway; 5 mg/kg, 48 h): 40% | decrease of SREBP-1c protein level (LXR signaling pathway; 5 mg/kg, 48 h): 30% | increase of PCNA protein level (LXR signaling pathway; 5 mg/kg, 48 h): 2 fold
